Like-named read-outs stand apart in the source and are kept apart here.
Columns and labels:
[1] = test system: Staphylococcus aureus 209P; test: Antimicrobial spectrum, MIC (Table 4); assay type: cell-based; details: 1% glucose nutrient agar, 37° C., 24 or 48 hours
[2] = test system: Staphylococcus aureus Smith; test: Antimicrobial spectrum, MIC (Table 4); assay type: cell-based; details: 1% glucose nutrient agar, 37° C., 24 or 48 hours
[3] = test system: Staphylococcus albus; test: Antimicrobial spectrum, MIC (Table 4); assay type: cell-based; details: 1% glucose nutrient agar, 37° C., 24 or 48 hours
[4] = test system: Staphylococcus citreus; test: Antimicrobial spectrum, MIC (Table 4); assay type: cell-based; details: 1% glucose nutrient agar, 37° C., 24 or 48 hours
[5] = test system: Streptococcus faecalis; test: Antimicrobial spectrum, MIC (Table 4); assay type: cell-based; details: 1% glucose nutrient agar, 37° C., 24 or 48 hours
[6] = test system: Streptococcus pyogenes; test: Antimicrobial spectrum, MIC (Table 4); assay type: cell-based; details: blood agar, 37° C., 24 or 48 hours
[7] = test system: Streptococcus pyogenes 090R; test: Antimicrobial spectrum, MIC (Table 4); assay type: cell-based; details: blood agar, 37° C., 24 or 48 hours
[8] = test system: Staphylococcus salivarius; test: Antimicrobial spectrum, MIC (Table 4); assay type: cell-based; details: 1% glucose nutrient agar, 37° C., 24 or 48 hours
[9] = test system: Micrococcus luteus; test: Antimicrobial spectrum, MIC (Table 4); assay type: cell-based; details: 1% glucose nutrient agar, 37° C., 24 or 48 hours
[10] = test system: Bacillus subtilis; test: Antimicrobial spectrum, MIC (Table 4); assay type: cell-based; details: 1% glucose nutrient agar, 37° C., 24 or 48 hours
[11] = test system: Bacillus cereus; test: Antimicrobial spectrum, MIC (Table 4); assay type: cell-based; details: 1% glucose nutrient agar, 37° C., 24 or 48 hours
[12] = test system: Corynebacterium dephtheriae; test: Antimicrobial spectrum, MIC (Table 4); assay type: cell-based; details: 1% glucose nutrient agar, 37° C., 24 or 48 hours
[13] = test system: Corynebacterium xerosis; test: Antimicrobial spectrum, MIC (Table 4); assay type: cell-based; details: 1% glucose nutrient agar, 37° C., 24 or 48 hours
[14] = test system: Mycobacterium sp. 607; test: Antimicrobial spectrum, MIC (Table 4); assay type: cell-based; details: 3% glycerol nutrient agar for acid-fast bacteria, 37° C., 24 or 48 hours
[15] = test system: Mycobacterium phlei; test: Antimicrobial spectrum, MIC (Table 4); assay type: cell-based; details: 3% glycerol nutrient agar for acid-fast bacteria, 37° C., 24 or 48 hours
[16] = test system: Mycobacterium avium; test: Antimicrobial spectrum, MIC (Table 4); assay type: cell-based; details: 3% glycerol nutrient agar for acid-fast bacteria, 37° C., 24 or 48 hours
[17] = test system: Nocardia asteroides; test: Antimicrobial spectrum, MIC (Table 4); assay type: cell-based; details: 37° C., 24 or 48 hours
[18] = test system: Escherichia coli; test: Antimicrobial spectrum, MIC (Table 4); assay type: cell-based; details: 1% glucose nutrient agar, 37° C., 24 or 48 hours
[19] = test system: Salmonella typhimurium; test: Antimicrobial spectrum, MIC (Table 4); assay type: cell-based; details: 1% glucose nutrient agar, 37° C., 24 or 48 hours
[20] = test system: Shigella dysenteriae Shiga; test: microbe, parasite or virus in culture; assay type: cell-based
[21] = test system: Klebsiella pneumoniae; test: Antimicrobial spectrum, MIC (Table 4); assay type: cell-based; details: 1% glucose nutrient agar, 37° C., 24 or 48 hours
[22] = test system: Brucella abortus; test: microbe, parasite or virus in culture; assay type: cell-based
[23] = test system: Serratia marcescens; test: Antimicrobial spectrum, MIC (Table 4); assay type: cell-based; details: 1% glucose nutrient agar, 37° C., 24 or 48 hours
[24] = test system: Pseudomonas aeruginosa; test: Antimicrobial spectrum, MIC (Table 4); assay type: cell-based; details: 1% glucose nutrient agar, 37° C., 24 or 48 hours
[25] = Solubility
[26] = test system: Mucor mucedo; test: Antimicrobial spectrum, MIC (Table 4)
[27] = test system: Saccharomyces cerevisiae; test: Antimicrobial spectrum, MIC (Table 4)
[28] = test system: Rhodotorula glutinis; test: Antimicrobial spectrum, MIC (Table 4)
[29] = test system: Aspergillus niger; test: Antimicrobial spectrum, MIC (Table 4)
[30] = test system: Aspergillus oryzae; test: Antimicrobial spectrum, MIC (Table 4)
[31] = test system: Penicillium glaucum; test: Antimicrobial spectrum, MIC (Table 4)
[32] = test system: Trichophyton mentagrophytes; test: Antimicrobial spectrum, MIC (Table 4)
[33] = test system: Candida albicans; test: Antimicrobial spectrum, MIC (Table 4)
[34] = in vivo; details: mouse, ip
[35] = 1% glucose nutrient agar, 37° C., 24 or 48 hours
[36] = blood agar, 37° C., 24 or 48 hours
[37] = Sabouraud.dextrose.agar, 27° C., 48 hours
[38] = Sabouraud.dextrose.agar, 27° C., 72 hours

COC1=C(C)C(=O)C2=C(C1=O)[C@H](CNC(=O)C(C)=O)N1C[C@@H]3[C@@H](O)c4c(O)c(C)c(OC)c(O)c4[C@H]([C@@H]1C2)N3C [saframycin E]
> 100.0 µg/mL: MIC [5] | MIC [6] | MIC [18] | MIC [19] | MIC [20, 35] | MIC [23] | MIC [24] | MIC [26, 37] | MIC [27, 37] | MIC [28, 37] | MIC [29, 37] | MIC [30, 37] | MIC [31, 37] | MIC [32, 38] | MIC [33, 37]
Insoluble: Solubility ([25]; n-hexane) | Solubility ([25]; water)
Sparingly soluble: Solubility ([25]; acetone) | Solubility ([25]; chloroform) | Solubility ([25]; esters)
25.0 µg/mL: MIC [7] | MIC [11] | MIC [13] | MIC [15] | MIC [17] | MIC [22, 36]
50.0 µg/mL: MIC [2] | MIC [21]
12.5 µg/mL: MIC [9]
Easily soluble: Solubility ([25]; lower alcohols) | Solubility ([25]; pyridine)
100.0 µg/mL: MIC [1] | MIC [3] | MIC [4] | MIC [8] | MIC [10] | MIC [12] | MIC [14] | MIC [16]

COC1=C(C)C(=O)C2=C(C1=O)C1C3CC4=C(C(=O)C(OC)=C(C)C4=O)C(CNC(=O)C(C)=O)N3CC(C2)N1C (stereo not shown) [saframycin B]
12.5 µg/mL: MIC ([1]; Staphylococcus aureus, 209P, read-out: MIC) | MIC ([3]; Staphylococcus, read-out: MIC) | MIC ([4]; Staphylococcus, read-out: MIC) | MIC ([6]; Streptococcus pyogenes, read-out: MIC) | MIC ([13]; Corynebacterium xerosis, read-out: MIC) | MIC ([21]; Klebsiella pneumoniae, read-out: MIC)
50 µg/mL: MIC ([15]; Mycolicibacterium phlei, read-out: MIC) | MIC ([17]; Nocardia asteroides, read-out: MIC) | MIC ([22]; Brucella abortus)
100 µg/mL: MIC ([8]; Staphylococcus, read-out: MIC) | MIC ([11]; Bacillus cereus, read-out: MIC) | MIC ([14]; Mycobacterium, SP.607, read-out: MIC) | MIC ([16]; Mycobacterium avium, read-out: MIC)
250 mg/kg: MTD [34]
25 µg/mL: MIC ([7]; Streptococcus pyogenes, 090R, read-out: MIC) | MIC ([10]; Bacillus subtilis, read-out: MIC)
1.56 µg/mL: MIC ([2]; Staphylococcus aureus, read-out: MIC) | MIC ([9]; Micrococcus luteus, read-out: MIC)
> 100 µg/mL: MIC ([5]; Enterococcus faecalis, read-out: MIC) | MIC ([18]; Escherichia coli, read-out: MIC) | MIC ([19]; Salmonella enterica, TYPHIMURIUM, read-out: MIC) | MIC ([20]; Shigella dysenteriae) | MIC ([23]; Serratia marcescens, read-out: MIC) | MIC ([24]; Pseudomonas aeruginosa, read-out: MIC) | MIC ([26]; Mucor mucedo, 48 h) | MIC ([27]; Saccharomyces cerevisiae, 48 h) | MIC ([28]; Rhodotorula glutinis, 48 h) | MIC ([29]; Aspergillus niger, 48 h) | MIC ([30]; Aspergillus oryzae, 48 h) | MIC ([31]; Penicillium, 48 h) | MIC ([32]; Trichophyton mentagrophytes, 72 h) | MIC ([33]; Candida albicans, 48 h)
0.4 µg/mL: MIC ([12]; Corynebacterium, read-out: MIC)

COC1=C(C)C(=O)C2=C(C1=O)[C@@H]1[C@@H]3CC4=C(C(=O)C(OC)=C(C)C4=O)[C@H](CNC(=O)C(C)=O)N3C[C@H]([C@H]2OC)N1C [saframycin C]
25.0 µg/mL: MIC [1] | MIC [3] | MIC [4] | MIC [6] | MIC [10] | MIC [13]
Insoluble: Solubility ([25]; n-hexane) | Solubility ([25]; water)
50.0 µg/mL: MIC [17] | MIC [21] | MIC [22, 36]
6.25 µg/mL: MIC [2] | MIC [9]
12.5 µg/mL: MIC [7]
Easily soluble: Solubility ([25]; acetone) | Solubility ([25]; benzene) | Solubility ([25]; chloroform) | Solubility ([25]; esters) | Solubility ([25]; lower alcohols)
3.125 µg/mL: MIC [12]
> 100.0 µg/mL: MIC [5] | MIC [8] | MIC [14] | MIC [15] | MIC [16] | MIC [18] | MIC [19] | MIC [20, 35] | MIC [23] | MIC [24] | MIC [26, 37] | MIC [27, 37] | MIC [28, 37] | MIC [29, 37] | MIC [30, 37] | MIC [31, 37] | MIC [32, 38] | MIC [33, 37]
100.0 µg/mL: MIC [11]
Sparingly soluble: Solubility ([25]; ethyl ether)

COC1=C(C)C(=O)C2=C(C1=O)[C@H](CNC(=O)C(C)=O)N1C[C@H]3C(=O)c4c(O)c(C)c(OC)c(O)c4[C@@H]([C@@H]1C2)N3C [saframycin D]
50.0 µg/mL: MIC [2] | MIC [3] | MIC [4] | MIC [9] | MIC [10] | MIC [14] | MIC [15] | MIC [16] | MIC [17]
100.0 µg/mL: MIC [11] | MIC [21]
25.0 µg/mL: MIC [1] | MIC [22, 36]
6.25 µg/mL: MIC [13]
Easily soluble: Solubility ([25]; chloroform) | Solubility ([25]; lower alcohols) | Solubility ([25]; pyridine)
0.195 µg/mL: MIC [12]
Insoluble: Solubility ([25]; n-hexane) | Solubility ([25]; water)
Sparingly soluble: Solubility ([25]; acetone) | Solubility ([25]; esters) | Solubility ([25]; ethyl ether)
> 100.0 µg/mL: MIC [18] | MIC [19] | MIC [20, 35] | MIC [23] | MIC [24] | MIC [26, 37] | MIC [27, 37] | MIC [28, 37] | MIC [29, 37] | MIC [30, 37] | MIC [31, 37] | MIC [32, 38] | MIC [33, 37]
